Laboratory results published in patent US5039792A, “Allatostatins which inhibit insect juvenile hormone biosynthesis” (Oregon State University, priority 1989, dated 1991).
Ends that are not written are not given here.

Tested on: juvenile hormone III synthesis by corpora allata
Assay: in vitro radiochemical assay for inhibition of juvenile hormone III synthesis and release by corpora allata
Type: cell-based, Diploptera punctata
Conditions: for IC50: inhibition of juvenile hormone synthesis and release, two hour in vitro radiochemical assay, corpora allata from ten day old pregnant females, read-out: Bioactivity as I.C.50 (Day 10 Donors)
Description: This assay for inhibition of JH synthesis is conducted as described by G. E. Pratt and J. R. Finney, in Crop Protection Agents: their biological evaluation, N. R. McFarlane, Ed. (Academic Press, New York, 1976)) except it is modified by the use of rapid partition instead of thin layer chromatography to isolate the newly synthesized JH and also modified by a reduction of incubation time to two hours.
Biological activities are determined for all RP18.cndot.HPLC fractions. […] Juvenile hormone III is synthesized de novo from acetyl-CoA through the classical isoprenoid pathway to farnesyl pyrophosphate (D. A. Schooley and F. C. Baker, in Comprehensive Insect Physiology, Biochemistry and Pharmacology, G. A. Kerkut and L. I. Gilbert, Eds. (Pergamon, Oxford, 1985) Vol. 7, pp. 363-389) and the enzymatic conversion of […] to JH can be stimulated in vitro by exogenous 2E,6E […] (Aldrich, Milwaukee, Wis.) which presumably alleviates a limitation in the biosynthetic flux (R. Feyereisen, J. Koener, S. S. Tobe, in Juvenile Hormone Biochemistry, G. E. Pratt and G. T. Brooks, Eds. (Elsevier, Amsterdam, 1981), pp. 81-92). […] The target of this allatostatin is therefore located early in the biosynthetic pathway. Juvenile hormone synthesis is determined at the end of two hours in these assays and bioactivity is measured as the ability of the peptide to inhibit biosynthesis of the JHIII. The peptide yields as determined from sequence analysis correspond to approximately 35 fmole/brain-complex. This is approximately one third the yield of the smaller known allatostatins (see G. E. Pratt et al. Biochem. & Biophys. Res. Commun. 163:1243 (1989) and A. P. Woodhead et al. Prod. Natl. Acad. Sci. 86:5997 (1989).
The inhibition of JH III synthesis and release by corpora allata (CA) from ten day old pregnant females is measured by an in vitro radiochemical assay. The three hour assay for inhibitors of JH synthesis (G. E. Pratt and J. R. Finney, in Crop Protection Agents: their biological evaluation, N. R. McFarlane, Ed. (Academic Press, New York, 1976) pp. 113-132) is modified by the use of rapid partition instead of thin layer chromatography to isolate the newly synthesized JH III (R. Feyereisen and S. S. Tobe, Anal. Biochem. 111: 372 (1981)) and modified by a reduction of incubation time to two hours. In each assay, run in seven replicates, one pair of CA was incubated with 50 μM (methyl-^3 H) methionine and putative inhibitor in 0.1 mL of TC199 containing 2% Ficoll, 0.1% bovine serum albumin and 0.03% bacitracin. The test glands show maximum sensitivity to the allatostatic action of brain extracts. R. Feyereisen and D. E. Farnsworth, Insect Biochem. 17,939 (1987); S. M. Rankin and B. Stay, J. Insec. Physiol. 33, 551 (1987).

Substance | IC50 | inhibition of JH III biosynthesis in dose-response assays in the presence of farnesol (in the presence of 200 μM farnesol, JH synthesis determined at the end of two hours) | biological activity in the in vitro assay (inhibition of JH synthesis) (in vitro radiochemical assay, corpora allata)
Ac-RLPVYNFGL-NH2 [acetyl-RLPVYNFGL-NH2] | 30 nM |  | 
AYSYVSEYKRLPVYNFGL-NH2 [AYSYVSEYKRLPVYNFGL-NH2] | 0.3 nM | totally ineffective | biologically active
RLPVYNFGL-NH2 [RLPVYNFGL-NH2] | 270 nM |  | 
Ac-AYSYVSEYKRLPVYNFGL-NH2 [acetyl-AYSYVSEYKRLPVYNFGL-NH2] | 1.5 nM |  | 
LRVYNFGL-NH2 [LRVYNFGL-NH2] | 118 nM |  | 
LPVYNFGL-NH2 [LPVYNFGL-NH2] | 50 nM |  | 
